# According to ChEMBL document CHEMBL1157172, “Rational design, synthesis, and in vivo evaluation of the antileukemic activity of six new alkylating steroidal esters” (Bioorg Med Chem, 2008):
# Calls of active or inactive are those of the source. No cut-off for these calls is given here.
# Legend:
# [1] = (§1) Acute toxicity in ip dosed BALB/c mouse after 30 days; type: organism-based; conditions: BALB/c, in vivo
# Mus musculus = experiment: as §1; type: organism-based; conditions: in vivo, 720 h
# P388 [2] = experiment: Antitumor activity in BDF1 mouse bearing P388 cells assessed as mean survival days at 120 mg/kg/day, ip; type: functional; conditions: route intraperitoneal
# P388 [3] = experiment: Increase in median life span in BDF1 mouse bearing P388 cells at 120 mg/kg/day, ip relative to corn oil; type: functional; conditions: route intraperitoneal
# L1210 [4] = experiment: Antitumor activity in BDF1 mouse L1210 cells assessed as mean survival days at 120 mg/kg/day, ip; type: functional; conditions: route intraperitoneal
# L1210 [5] = experiment: Increase in median life span in BDF1 mouse L1210 cells at 120 mg/kg/day, ip relative to corn oil; type: functional; conditions: route intraperitoneal
# L1210 [6] = experiment: Antitumor activity in BDF1 mouse L1210 cells assessed as number of cured mouse at 120 mg/kg/day, ip after 90 days; type: functional, organism-based
# P388 [7] = experiment: Antitumor activity in BDF1 mouse bearing P388 cells assessed as mean survival days at 50 mg/kg/day, ip; type: functional; conditions: route intraperitoneal
# P388 [8] = experiment: Increase in median life span in BDF1 mouse bearing P388 cells at 50 mg/kg/day, ip relative to corn oil; type: functional; conditions: route intraperitoneal
# L1210 [9] = experiment: Antitumor activity in BDF1 mouse L1210 cells assessed as mean survival days at 50 mg/kg/day, ip; type: functional; conditions: route intraperitoneal
# L1210 [10] = experiment: Increase in median life span in BDF1 mouse L1210 cells at 50 mg/kg/day, ip relative to corn oil; type: functional; conditions: route intraperitoneal
# P388 [11] = experiment: Antitumor activity in BDF1 mouse bearing P388 cells assessed as number of cured mouse at 50 mg/kg/day, ip after 90 days; type: functional, organism-based
# L1210 [12] = experiment: Antitumor activity in BDF1 mouse L1210 cells assessed as number of cured mouse at 50 mg/kg/day, ip after 90 days; type: functional, organism-based
# P388 [13] = experiment: Antitumor activity in BDF1 mouse bearing P388 cells assessed as mean survival days at 12.5 mg/kg/day, ip; type: functional; conditions: route intraperitoneal
# P388 [14] = experiment: Increase in median life span in BDF1 mouse bearing P388 cells at 12.5 mg/kg/day, ip relative to corn oil; type: functional; conditions: route intraperitoneal
# L1210 [15] = experiment: Antitumor activity in BDF1 mouse L1210 cells assessed as mean survival days at 12.5 mg/kg/day, ip; type: functional; conditions: route intraperitoneal
# L1210 [16] = experiment: Increase in median life span in BDF1 mouse L1210 cells at 12.5 mg/kg/day, ip relative to corn oil; type: functional; conditions: route intraperitoneal
# P388 [17] = experiment: Antitumor activity in BDF1 mouse bearing P388 cells assessed as number of cured mouse at 12.5 mg/kg/day, ip after 90 days; type: functional, organism-based
# L1210 [18] = experiment: Antitumor activity in BDF1 mouse L1210 cells assessed as number of cured mouse at 12.5 mg/kg/day, ip after 90 days; type: functional, organism-based
# P388 [19] = experiment: Antitumor activity in BDF1 mouse bearing P388 cells assessed as mean survival days at 30 mg/kg/day, ip; type: functional; conditions: route intraperitoneal
# P388 [20] = experiment: Increase in median life span in BDF1 mouse bearing P388 cells at 30 mg/kg/day, ip relative to corn oil; type: functional; conditions: route intraperitoneal
# L1210 [21] = experiment: Antitumor activity in BDF1 mouse L1210 cells assessed as mean survival days at 30 mg/kg/day, ip; type: functional; conditions: route intraperitoneal
# L1210 [22] = experiment: Increase in median life span in BDF1 mouse L1210 cells at 30 mg/kg/day, ip relative to corn oil; type: functional; conditions: route intraperitoneal
# L1210 [23] = experiment: Antitumor activity in BDF1 mouse L1210 cells assessed as number of cured mouse at 30 mg/kg/day, ip after 90 days; type: functional, organism-based
# P388 [24] = experiment: Antitumor activity in BDF1 mouse bearing P388 cells assessed as mean survival days at 22 mg/kg/day, ip; type: functional; conditions: route intraperitoneal
# P388 [25] = experiment: Increase in median life span in BDF1 mouse bearing P388 cells at 22 mg/kg/day, ip relative to corn oil; type: functional; conditions: route intraperitoneal
# L1210 [26] = experiment: Antitumor activity in BDF1 mouse L1210 cells assessed as mean survival days at 22 mg/kg/day, ip; type: functional; conditions: route intraperitoneal
# L1210 [27] = experiment: Increase in median life span in BDF1 mouse L1210 cells at 22 mg/kg/day, ip relative to corn oil; type: functional; conditions: route intraperitoneal
# P388 [28] = experiment: Antitumor activity in BDF1 mouse bearing P388 cells assessed as number of cured mouse at 22 mg/kg/day, ip after 90 days; type: functional, organism-based
# L1210 [29] = experiment: Antitumor activity in BDF1 mouse L1210 cells assessed as number of cured mouse at 22 mg/kg/day, ip after 90 days; type: functional, organism-based
# P388 [30] = experiment: Antitumor activity in BDF1 mouse bearing P388 cells assessed as mean survival days at 200 mg/kg/day, ip; type: functional; conditions: route intraperitoneal
# P388 [31] = experiment: Increase in median life span in BDF1 mouse bearing P388 cells at 200 mg/kg/day, ip relative to corn oil; type: functional; conditions: route intraperitoneal
# L1210 [32] = experiment: Antitumor activity in BDF1 mouse L1210 cells assessed as mean survival days at 200 mg/kg/day, ip; type: functional; conditions: route intraperitoneal
# L1210 [33] = experiment: Increase in median life span in BDF1 mouse L1210 cells at 200 mg/kg/day, ip relative to corn oil; type: functional; conditions: route intraperitoneal
# P388 [34] = experiment: Antitumor activity in BDF1 mouse bearing P388 cells assessed as number of cured mouse at 200 mg/kg/day, ip after 90 days; type: functional, organism-based
# L1210 [35] = experiment: Antitumor activity in BDF1 mouse L1210 cells assessed as number of cured mouse at 200 mg/kg/day, ip after 90 days; type: functional, organism-based
# P388 [36] = experiment: Antitumor activity in BDF1 mouse bearing P388 cells assessed as mean survival days at 7.5 mg/kg/day, ip; type: functional; conditions: route intraperitoneal
# P388 [37] = experiment: Increase in median life span in BDF1 mouse bearing P388 cells at 7.5 mg/kg/day, ip relative to corn oil; type: functional; conditions: route intraperitoneal
# L1210 [38] = experiment: Antitumor activity in BDF1 mouse L1210 cells assessed as mean survival days at 7.5 mg/kg/day, ip; type: functional; conditions: route intraperitoneal
# L1210 [39] = experiment: Increase in median life span in BDF1 mouse L1210 cells at 7.5 mg/kg/day, ip relative to corn oil; type: functional; conditions: route intraperitoneal
# P388 [40] = experiment: Antitumor activity in BDF1 mouse bearing P388 cells assessed as number of cured mouse at 7.5 mg/kg/day, ip after 90 days; type: functional, organism-based
# L1210 [41] = experiment: Antitumor activity in BDF1 mouse L1210 cells assessed as number of cured mouse at 7.5 mg/kg/day, ip after 90 days; type: functional, organism-based
smiles,measurement,setting,value
CC(=O)N[C@H]1CC[C@H]2[C@@H]3NC(=O)C=C4C[C@@H](OC(=O)c5ccc(C)c(N(CCCl)CCCl)c5)CC[C@]4(C)[C@H]3CC[C@]12C,LD50 at 720 h,[1],280 mg/kg
same,LD10,Mus musculus,240 mg/kg
same,Survival,P388 [2],28.5 days
same,Activity,P388 [3],300%
same,Survival,L1210 [4],20.5 days
same,Activity,L1210 [5],189.8%
same,Activity,L1210 [6],inactive
CC(=O)N[C@H]1CC[C@H]2[C@@H]3NC(=O)C=C4C[C@@H](OC(=O)CCCc5ccc(N(CCCl)CCCl)cc5)CC[C@]4(C)[C@H]3CC[C@]12C,LD50 at 720 h,[1],180 mg/kg
same,LD10,Mus musculus,100 mg/kg
same,Survival,P388 [7],22 days
same,Activity,P388 [8],231%
same,Survival,L1210 [9],15.2 days
same,Activity,L1210 [10],140.7%
same,Activity,P388 [11],inactive
same,Activity,L1210 [12],inactive
CC(=O)N[C@H]1CC[C@H]2[C@@H]3C(=O)C=C4C[C@@H](OC(=O)Cc5ccc(N(CCCl)CCCl)cc5)CC[C@]4(C)[C@H]3CC[C@]12C,LD50 at 720 h,[1],75 mg/kg
same,LD10,Mus musculus,25 mg/kg
same,Survival,P388 [13],29.8 days
same,Activity,P388 [14],314%
same,Survival,L1210 [15],26.3 days
same,Activity,L1210 [16],243%
same,Activity,P388 [17],inactive
same,Activity,L1210 [18],inactive
CC(=O)N[C@H]1CC[C@H]2[C@@H]3NC(=O)C=C4C[C@@H](OC(=O)Cc5ccc(N(CCCl)CCCl)cc5)CC[C@]4(C)[C@H]3CC[C@]12C,LD50 at 720 h,[1],80 mg/kg
same,LD10,Mus musculus,60 mg/kg
same,Survival,P388 [19],21 days
same,Activity,P388 [20],221%
same,Survival,L1210 [21],15.6 days
same,Activity,L1210 [22],144.4%
same,Activity,L1210 [23],inactive
CC(=O)N[C@H]1CC[C@H]2[C@@H]3C(=O)C=C4C[C@@H](OC(=O)CCCc5ccc(N(CCCl)CCCl)cc5)CC[C@]4(C)[C@H]3CC[C@]12C,LD50 at 720 h,[1],87 mg/kg
same,LD10,Mus musculus,44 mg/kg
same,Survival,P388 [24],18.8 days
same,Activity,P388 [25],198%
same,Survival,L1210 [26],16.2 days
same,Activity,L1210 [27],150%
same,Activity,P388 [28],inactive
same,Activity,L1210 [29],inactive
CC(=O)N[C@H]1CC[C@H]2[C@@H]3C(=O)C=C4C[C@@H](OC(=O)c5ccc(C)c(N(CCCl)CCCl)c5)CC[C@]4(C)[C@H]3CC[C@]12C,LD50 at 720 h,[1],600 mg/kg
same,LD10,Mus musculus,400 mg/kg
same,Survival,P388 [30],14.6 days
same,Activity,P388 [31],153%
same,Survival,L1210 [32],13.7 days
same,Activity,L1210 [33],127%
same,Activity,P388 [34],inactive
same,Activity,L1210 [35],inactive
O=C(O)CCCc1ccc(N(CCCl)CCCl)cc1 [CHLORAMBUCIL],LD50 at 720 h,[1],24 mg/kg
same,LD10,Mus musculus,15 mg/kg
same,Survival,P388 [36],14.7 days
same,Activity,P388 [37],155%
same,Survival,L1210 [38],12.3 days
same,Activity,L1210 [39],114%
same,Activity,P388 [40],inactive
same,Activity,L1210 [41],inactive
